The values that follow come from PMC11239005, “Preclinical studies of RA475, a guanidine-substituted spirocyclic candidate RPN13/ADRM1 inhibitor for treatment of ovarian cancer” (PLOS ONE, 2024).

Data set [1] deals with ID8-Vegf Defb29 cells stably expressing firefly luciferase. The data set is described as follows: Syngeneic ID8-luc ovarian tumor model, IP. The format is in vivo. As to conditions: C57BL6 mice, 40 mg/Kg every 3 days IP. On the procedure:
Female C57BL6 mice were inoculated IP with 3x10^5 ID8-Defb29/VegfA-luc cells in 100 μL PBS. At day 3, mice were imaged for basal level luminescence activity with a Xenogen IVIS 200 after IP injection with luciferin (0.3 mg in 100 μL water). Mice were randomized into groups and treated IP with compounds or vehicle (25% (w/v) β-Hydroxypropylcyclodextrin in water), and imaged again on days indicated.
In addition to direct tumor cell killing, it is possible that RA475 may trigger an immunogenic cell death and thus anti-tumor immunity that could contribute to tumor control. Therefore, we elected to first test the treatment potential of RA475 in an ovarian tumor in a syngeneic mouse model. Since ovarian cancer is shed into, and spread within the peritoneal cavity, female C57BL6 mice were injected IP with ID8-Vegf Defb29 cells stably expressing firefly luciferase (0.5 x 10^6 cells ID8-luc) in PBS (100 μL). After 72 h, mice were imaged for their basal luminescence levels using an IVIS200 imager to confirm the presence of viable tumor cells. Mice with visible luminescence were randomized into two groups and treated with Vehicle (25% β-hydroxy propylcyclodextrin in water, 200 μL, every 3 days, IP) and RA475 (40 mg/Kg, every 3 days, IP). Mice were weighed and, after administration of luciferin (100 μL, 7.8 mg/mL), imaged every week to assess bioluminescence associated with tumor burden. […]
Fig 6 Treatment with RA475 of mice bearing an orthotopic syngeneic ovarian cancer model tumor. Female C57BL6 mice bearing ID8-Luc tumor were monitored for tumor burden by IVIS imaging (A), survival (B) and animal weight (C) after treatment with IP treatment every three days with RA475 (40mg/Kg, n = 8) or vehicle alone (n = 7). […] After 72 h, mice were imaged after administration of luciferin (100 μL, 7.8 mg/mL) for their basal luminescence levels using an IVIS200 imager. Mice with visible luminescence were randomized into two groups and treated with Vehicle alone (25% β-hydroxy propylcyclodextrin in water, 200 μL, every 3 days, IP) or RA475 (40 mg/Kg, every 3 days, IP). […]

Data set [2] in a line: Stability in murine plasma. The format is in vitro ADME, mouse. As to conditions: 10 μM, 1 h at 37°C. On the procedure:
Human and mouse liver microsomes and NADPH regenerating system solutions were purchased from Corning Life Sciences (Tewsbury, MA). Human and mouse K2EDTA-treated plasma was purchased from BioIVT (Westbury, NY). Metabolic studies in liver microsomes (0.125 mg/mL) were conducted in 1x PBS (pH 7.4), NADPH-generating system, and 10 μM RA475 in a final volume of 250 μL. An incubation mixture with or without NADPH-generating system, as well as a neat solution prepared without microsomes and NADPH-generating system was used. RA475 was added at the same concentration level into human and mouse EDTA plasma. All reactions were initiated with the addition of RA475. Incubations were performed in glass tubes maintained at 37°C in a shaker bath. At 0, 30, and 60 min, 10 μL samples were withdrawn from the reaction mixture, and 0.5 mL of acetonitrile containing internal standard was added to each. Samples were vortex-mixed and subjected to centrifugation for 5 min at 1430 x g. A 10 μL aliquot of the supernatant was injected onto the LC-MS/MS instrument for qualitative analysis using a temperature-controlled autosampling device operating at 5°C (See Pharmacokinetic section).

Data set [3] has as its system spontaneous genetically-engineered peritoneal tumor (shp53, AKT, c-Myc). The data set is described as follows: Spontaneous GEMM of primary peritoneal/ovarian cancer. The format is in vivo, mouse. The note with it: C57BL/6. On the procedure: To induce IP tumor formation in immunocompetent mice, oncogenes (shp53, AKT, c-Myc), luciferase and the Sleeping Beauty (SB) transposase (10 μg/plasmid) were diluted in 500 μL of PBS and injected IP into female C57BL/6 mice. The mice were anesthetized by intramuscular injection of 50–100μL of a cocktail of ketamine 16 mg/mL / 3 mg/mL xylazine. The plasmid-injected mice were electroporated (EP) by the BTX ECM 830 square wave EP generator (BTX) (5 pulses, 200 V for 100 ms/pulse, 100 ms intervals between each pulse) with the caliper electrode (BTX) held across the waist of mouse. The mice were followed by IVIS imaging weekly for tracking tumor growth. The mice were sacrificed when the bioluminescence signal reached 10^9 photons/sec/cm^2/sr, or had enlarged abdomens due to the production of ascites, or had health conditions and/or criteria under which early euthanasia was required by the protocol. To track peritoneal tumor growth, bioluminescence imaging was performed by the IVIS Spectrum2000 (PerkinElmer) as the plasmid expressing SB transposase also produces luciferase. Briefly, the mice were injected IP with D-luciferin (GoldBio). After 10 min, the mice were anesthetized with isoflurane, and imaged by the IVIS Spectrum under the auto exposure mode. Bioluminescence in the peritoneal region was quantified as total photon counts/sec/cm^2/sr using Living Image 3.0 Software (Perkin Elmer).
GEMM better mimic the spontaneous development of cancers in an immune competent host than transplantable tumor lines. Female C57BL/6 mice were co-injected IP with sleeping beauty vector and plasmids expressing carrying shp53, AKT, c-Myc and firefly luciferase genes, followed by electroporation (EP) to deliver these plasmid DNA into the peritoneal cavity cells wherein they integrate randomly into their genome. After 7 days mice were imaged by IVIS200 for bioluminescence and randomized. Four groups (n = 8) were treated IP with vehicle or RA475 (40mg/kg, IP, every 3 days) or Cisplatin (5 mg/Kg, once a week) or the combination of RA475 (40mg/Kg, IP, every 3 days) plus Cisplatin (5 mg/Kg, once a week). […] While cisplatin reduced tumor growth, it led to severe toxicity including weight loss >20% that was not evident with RA475 alone.
Fig 7 Administration of RA475, cisplatin or the combination to mice bearing spontaneous, genetically-engineered model ovarian/peritoneal cancer. Female C57BL/6 mice were co-injected IP with sleeping beauty vector and plasmids expressing carrying shp53, AKT, c-Myc and firefly luciferase genes, followed by electroporation (EP) to deliver these plasmid DNA into the peritoneal cavity cells wherein they integrate randomly into their genome. After 7 days mice were imaged by Xenogen IVIS200 for bioluminescence and randomized. […]

[4] abbreviates: RA475 40 mg/kg IP every 3 days (12 doses), cisplatin 5 mg/Kg weekly (5 doses alone, 3 in combination).

With `Cl.Cl.N#Cc1ccc(/C=C2/C(=O)/C(=C/c3ccc(C#N)cc3)C23CCN(C(=N)N)CC3)cc1` [RA475, 1,3-bis((E)-4-cyanobenzylidene)-2-oxo-7-azaspiro[3.5]nonane-7-carboximidamide dihydrochloride], in data set [1], the survival entry is recorded as “prolonged survival” and the “tumor burden by bioluminescence” value is “tumor control”. Also, the animal weight result in data set [1] (while on treatment) is “continue to gain weight”. Further, the stability in plasma result in data set [2] is recorded as “did not degrade”. Further, in data set [3] (setting [4]), the survival entry is given as “extended survival to a similar extent as cisplatin alone” and the “tumor burden by bioluminescence” value is “delayed but did not significantly reduce tumor burden”. In addition, the weight loss result in data set [3] (RA475 40 mg/kg IP every 3 days, cisplatin 5 mg/Kg weekly) is listed as “not evident”.
